According to article PMC10048853 (International Journal of Molecular Sciences, 2023):
Like-named read-outs stand apart in the source and are kept apart here.

Experiments:
Type in all cases: binding, Tritirachium album limber
proteinase K (PK) [1] = target: T1, proteinase K (PK) (Parengyodontium album, UniProt P06873); experiment: Fluorescence quenching of proteinase K by MYR/MYT (Stern–Volmer, double-logarithmic and Van't Hoff analysis); settings: for Stern–Volmer constant Ksv: 3.46 μM PK, pH 8.0; for Kd: double logarithmic equation, read-out: binding constant KA (converted); for fluorescence quenching rate constant Kq: τ0 1 × 10^−8 s; for enthalpy change ∆H: Van't Hoff equation, 290, 300, 310 K; for fluorescence quenching process (mechanism): from Kq versus 2 × 10^10 L·mol^−1·s^−1
T1 construct: It is a single-chain protein consisting of 279 amino acid residues and has a molecular weight of 28,930 Da; purchased Jiuding Chemicals (Shanghai, China)
T1 sequence (P06873 106-384): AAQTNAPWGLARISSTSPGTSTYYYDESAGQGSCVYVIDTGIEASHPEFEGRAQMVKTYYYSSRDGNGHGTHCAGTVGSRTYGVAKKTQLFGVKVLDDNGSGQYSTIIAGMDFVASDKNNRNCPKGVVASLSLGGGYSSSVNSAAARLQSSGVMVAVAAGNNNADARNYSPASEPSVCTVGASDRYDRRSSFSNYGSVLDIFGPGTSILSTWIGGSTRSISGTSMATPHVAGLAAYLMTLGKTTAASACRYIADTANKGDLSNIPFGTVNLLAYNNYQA
Description: Fluorescence spectroscopy is an effective method used to investigate conformational changes of proteins and binding parameters of ligands to fluorophore residues of proteins such as Trp, Tyr or Phe. PK contains two Trp residues (Trp8 and Trp212), which make it possible to emit fluorescence. […] The process by which this phenomenon occurs is called fluorescence quenching, which is the result of the altered microenvironment of PK. To eliminate the interference of fluorescence quenching from the inner filter effect, the experiments were corrected for fluorescence intensity using Equation (1). (1) Fcorr=Fobs×e^(Aex+Aem)/2 where Fcorr and Fobs are the fluorescence emission intensity values of the corrected and pre-corrected systems, respectively. Aex and Aem are the UV–Vis absorption intensities of quencher and PK at excitation and emission wavelengths, respectively.
To investigate the differences in the fluorescence quenching patterns of the PK-MYR and PK-MYT complexes, the Stern–Volmer equation (Equation (2)) was used for analysis.
Fluorescence quenching could be categorized into two processes, namely dynamic quenching and static quenching. Dynamic quenching occurs when the quencher collides with biological macromolecules, while static quenching is caused by the formation of complexes. For the dynamic process, the increase in Ksv along with the increase in temperature is expected, and the opposite is seen for the static quenching process. […] Consequently, we know that the combination of PK and MYR/MYT could form PK-MYR and PK-MYT complexes, leading to the static quenching mechanism.
Normally, the maximum collisional quenching constant Kq is about 2 × 10^10 L·mol^−1·s^−1 for small molecule quenchers and biomolecules.
The binding constants and the number of binding sites can be calculated by using a double logarithmic equation [20, 21] (Equation (3)). (3) log[(F0−F)/F]=logKA+nAlog[Q] where KA represents the binding constant between the biomolecule and the quencher, and nA implies the number of binding sites between the quencher and the fluorophor. […] It could be proposed that the binding constant of PK-MYT is larger than that of PK-MYR at the temperature of 290 K, and these two complexes share a similar binding site number n around one.
(4) lnKA=−ΔH/RΤ+ΔS/R (5) ΔG=−RTInKA=ΔH−TΔS where R is the molar gas constant with a general value of 8.314 J·mol^−1·K^−1. ∆H and ∆S are the enthalpy and entropy changes during the fluorescence quenching, respectively. The ∆G in Equation (5) is the Gibbs free energy change in the reaction. In general, the interaction between quenchers and fluorophors can be explained by four forces, including hydrogen bonding, van der Waals forces, electrostatic forces, and hydrophobic interactions. The sign and magnitude of ∆H and ∆S can be used to distinguish the binding forces and properties of the complexes. When ∆H and ∆S are positive, hydrophobic interactions dominate; when both ∆H and ∆S are negative, they can be explained as hydrogen bonding and van der Waals forces; when ∆H and ∆S are very low negative or positive values, there exist electrostatic interactions.
(§1) A Cary Eclipse fluorescence spectrometer (Varian, Palo Alto, CA, USA) was used to determine specific changes in the fluorescence emission of PK at different temperatures. All measurements were recorded at an excitation wavelength of 278 nm and the emission wavelength of 290–450 nm. The excitation and emission slits were adjusted to 5 nm. In synchronous fluorescence measurements, ∆λ was set to 60 and 15 nm.

proteinase K (PK) [2] = target: T1, proteinase K (PK); experiment: Förster resonance energy transfer (FRET) between PK (donor) and ligand (acceptor); settings: 290 K; PK and ligand 3.46 μM
Description: The distance and energy transfer between two chromophores, commonly known as the donor and the acceptor, may be computed by the Förster resonance energy transfer (FRET) theory. […] The energy transfer efficiency and binding distance were estimated according to Equation (6). (6) E=1−F/F0=RC^6/RC^6+r^6 where E is the energy transfer efficiency between the donor and the acceptor, r is the binding distance between the donor and the acceptor, and RC is the critical distance when the energy transfer efficiency is 50%, the value of which can be calculated using Equation (7). (7) RC^6=8.8×10^−25(K^2⋅Φ⋅n^−4⋅J) where K^2 is the spatial orientation factor associated with the geometry of the dipole donor and acceptor and generally takes the value of 2/3. Φ is the fluorescence quantum yield of the donor. The symbol n is the average refractive index of the medium and usually takes the value of 1.336 as the average value of water and organic matter. J is the spectral overlap integral between the fluorescence emission spectrum of the donor and the absorption spectrum of the acceptor, and the value is calculated by Equation (8). (8) J=∑(FD(λ)⋅ε(λ)⋅λ^4⋅Δλ)/∑(FD(λ)⋅Δλ) where FD(λ) is the corrected fluorescence intensity of the donor in the wavelength range, ε(λ) is the molar absorption constant of the acceptor at the wavelength, and ∆λ is the span of the wavelength. Following the FRET theory, the main factors affecting the energy transfer efficiency include the fluorescence production of the donor, the overlap of the fluorescence emission spectrum of the donor with the UV–Vis absorption spectrum of the acceptor, and the binding distance between the donor and the acceptor that must be within a specified range of 1 to 10 nm.
Förster resonance energy transfer (FRET) was tracked by overlapping PK emission spectrum (donor) with MYR or MYT absorption spectrum (acceptor). A concentration of 3.46 μM PK was chosen for the fluorescence emission spectroscopy measurements.

proteinase K (PK) [3] = target: T1, proteinase K (PK); experiment: Site-tagged competition experiments with ibuprofen and cytisine; settings: for Ksv of free PK: no site marker; for Ksv of PK–cytisine complex as % of that of free PK: site marker cytisine; for Ksv of PK–ibuprofen complex as % of that of free PK: site marker ibuprofen
Description: To determine the binding site of PK, two typical ligands including ibuprofen and cytisine were chosen to perform competitive binding experiments. […] The site-labeling experiments were still performed using Equations (1) and (2) for correction and data analysis, respectively. […] It has been well known that neutral compounds such as ibuprofen and cytisine are likely to bind with proteins through hydrophobic interactions and hydrogen binding. […] This is consistent with the results obtained from the thermodynamic calculations.
For in site labeling competition experiments, an agent such as ibuprofen or cytisine of 3.46 μM was first mixed with PK. […] The excitation wavelengths for PK–ibuprofen and PK–cytisine were 265 and 280 nm, respectively. Fluorescence spectra were analyzed using the Stern–Volmer equation.

proteinase K (PK) [4] = target: T1, proteinase K (PK); experiment: Synchronous fluorescence spectroscopy of PK with ligand; settings: 300 K, ligand increased from 0.0 to 25.0 μM; for maximum emission wavelength of PK, synchronous fluorescence (Figure 6B,D): peak near 274 nm; for maximum emission wavelength of PK, synchronous fluorescence (Figure 6A / 6C): peak near 279 nm
Description: Synchronous fluorescence spectroscopy studies were performed to observe changes in the molecular environment of Tyr residues and Trp residues in the host structure, which are mainly responsible for fluorescence emission. Therefore, we used the characteristic information of Tyr and Trp residues, ∆λ = 15 nm and ∆λ = 60 nm, respectively, to probe the changes in the PK-MYR and PK-MYT complexes.
as §1

[5] = site marker cytisine 3.46 μM, room temperature, 1 h
[6] = site marker ibuprofen 3.46 μM, room temperature, 1 h

Compound | Gibbs free energy change ∆G (proteinase K (PK) [1]; T 290 K) [kcal/mol] | number of binding sites nA (proteinase K (PK) [1]; T 290 K) | Stern–Volmer constant Ksv (proteinase K (PK) [1]; T 290 K) | fluorescence quenching rate constant Kq (proteinase K (PK) [1]; T 290 K) | Gibbs free energy change ∆G (proteinase K (PK) [1]; T 300 K) [kcal/mol] | number of binding sites nA (proteinase K (PK) [1]; T 300 K) | Stern–Volmer constant Ksv (proteinase K (PK) [1]; T 300 K) | fluorescence quenching rate constant Kq (proteinase K (PK) [1]; T 300 K) | Gibbs free energy change ∆G (proteinase K (PK) [1]; T 310 K) [kcal/mol] | number of binding sites nA (proteinase K (PK) [1]; T 310 K) | Stern–Volmer constant Ksv (proteinase K (PK) [1]; T 310 K) | fluorescence quenching rate constant Kq (proteinase K (PK) [1]; T 310 K) | enthalpy change ∆H (proteinase K (PK) [1]) [kcal/mol] | fluorescence quenching process (mechanism) (proteinase K (PK) [1]) | critical distance RC (proteinase K (PK) [2]) [nm] | energy transfer efficiency E (proteinase K (PK) [2]) | Ksv of free PK (proteinase K (PK) [3]) [L/mol] | Ksv of PK–cytisine complex as % of that of free PK (proteinase K (PK) [3]) [%] | Stern–Volmer equation quenching constant KSV (proteinase K (PK) [3]; [5]) | Ksv of PK–ibuprofen complex as % of that of free PK (proteinase K (PK) [3]) [%] | other results
O=c1c(O)c(-c2cc(O)c(O)c(O)c2)oc2cc(O)cc(O)c12 [MYR, Myricetin] | -6.601 | 1.0 | 3.57 10^4 L·mol^−1 | 3.57 10^12 L·mol^−1·s^−1 | -6.03 | 0.9 | 2.46 10^4 L·mol^−1 | 2.46 10^12 L·mol^−1·s^−1 | -5.442 | 0.9 | 1.90 10^4 L·mol^−1 | 1.90 10^12 L·mol^−1·s^−1 | -23.42 | static | 3.61 | 0.105 | 24600 | 70.73 | 1.74 10^4 L·mol^−1 | 69.51 | Kd (proteinase K (PK) [1]; T 290 K): 16.9 µM; Kd (proteinase K (PK) [1]; T 300 K): 40.5 µM; Kd (proteinase K (PK) [1]; T 310 K): 114 µM; binding distance r (proteinase K (PK) [2]): 5.11 nm; Stern–Volmer equation quenching constant KSV (proteinase K (PK) [3]; [6]): 1.71 10^4 L·mol^−1; Stern–Volmer equation quenching constant KSV (proteinase K (PK) [3]; site marker: blank (free PK)): 2.46 10^4 L·mol^−1; maximum emission wavelength of PK, synchronous fluorescence (Figure 6B,D) (proteinase K (PK) [4]): no shift; maximum emission wavelength of PK, synchronous fluorescence (Figure 6A / 6C) (proteinase K (PK) [4]): 279.0 nm
Myricitrin [MYT] | -6.558 | 1.1 | 2.20 10^4 L·mol^−1 | 2.20 10^12 L·mol^−1·s^−1 | -6.018 | 1.0 | 2.06 10^4 L·mol^−1 | 2.06 10^12 L·mol^−1·s^−1 | -5.28 | 0.9 | 1.88 10^4 L·mol^−1 | 1.88 10^12 L·mol^−1·s^−1 | -25.098 | static | 3.42 | 0.128 | 20600 | 38.14 | 0.78 10^4 L·mol^−1 | 61.52 | Stern–Volmer equation quenching constant KSV (proteinase K (PK) [3]; [6]): 1.27 10^4 L·mol^−1; Stern–Volmer equation quenching constant KSV (proteinase K (PK) [3]; site marker: blank (free PK)): 2.06 10^4 L·mol^−1; maximum emission wavelength of PK, synchronous fluorescence (Figure 6B,D) (proteinase K (PK) [4]): 274.0 to 276.0 nm; maximum emission wavelength of PK, synchronous fluorescence (Figure 6A / 6C) (proteinase K (PK) [4]): 279.0 to 280.0 nm
